Source: ChEMBL document CHEMBL3784937, “Synthesis and biological evaluation of indeno[1,5]naphthyridines as topoisomerase I (TopI) inhibitors with antiproliferative activity” (Eur J Med Chem, 2016)
Calls of active or inactive are those of the source. The calls are words filed in the database; no cut-off is given here.

How the values were obtained:
[1] = organism: Homo sapiens; assay: Inhibition of human recombinant topoisomerase 1B expressed in Saccharomyces cerevisiae using plasmid DNA as substrate assessed as DNA relaxation at 100 uM preincubated with enzyme for 15 mins followed by substrate addition after 15 secs by agarose gel electrophoresis
[2] = organism: Homo sapiens; assay: Inhibition of human recombinant topoisomerase 1B expressed in Saccharomyces cerevisiae using plasmid DNA as substrate assessed as DNA relaxation at 100 uM preincubated with enzyme for 15 mins followed by substrate addition after 1 min by agarose gel electrophoresis
[3] = organism: Homo sapiens; assay: Inhibition of human recombinant topoisomerase 1B expressed in Saccharomyces cerevisiae using plasmid DNA as substrate assessed as DNA relaxation at 100 uM preincubated with enzyme for 15 mins followed by substrate addition after 3 min by agarose gel electrophoresis
[4] = organism: Homo sapiens; assay: Inhibition of human recombinant topoisomerase 1B expressed in Saccharomyces cerevisiae using plasmid DNA as substrate assessed as DNA relaxation at 50 uM preincubated with enzyme for 15 mins followed by substrate addition after 50 secs by agarose gel electrophoresis
[5] = Cytotoxicity against human BT20 cells assessed as growth inhibition after 48 hrs by CCK8 assay; assay type: functional, cell-based; conditions: BT-20, 48 h
[6] = tested on: A549; assay: Cytotoxicity against human A549 cells assessed as growth inhibition after 48 hrs by CCK8 assay; assay type: functional, cell-based; conditions: A549, 48 h
[7] = Cytotoxicity against human SKOV3 cells assessed as growth inhibition after 48 hrs by CCK8 assay; assay type: functional, cell-based; conditions: SK-OV-3, 48 h
[8] = Inhibition of human recombinant topoisomerase 1B expressed in Saccharomyces cerevisiae using plasmid DNA as substrate assessed as DNA relaxation at 25 uM preincubated with enzyme for 15 mins followed by substrate addition after 50 secs by agarose gel electrophoresis
[9] = organism: Homo sapiens; assay: Inhibition of human recombinant topoisomerase 1B expressed in Saccharomyces cerevisiae using plasmid DNA as substrate assessed as DNA relaxation at 100 uM preincubated with substrate for 15 mins followed by enzyme addition after 15 secs to 3 mins by agarose gel electrophoresis
[10] = organism: Homo sapiens; assay: Inhibition of human recombinant topoisomerase 1B expressed in Saccharomyces cerevisiae using plasmid DNA as substrate assessed as DNA relaxation at 100 uM after 15 secs to 3 mins by agarose gel electrophoresis

O=C1c2ccccc2-c2c1c(-c1cccc(F)c1)nc1cccnc21
inhibition [1]: Active | inhibition [2]: Active | inhibition [3]: Active | inhibition [4]: Active | IC50 [5]: > 100 µM | IC50 [6]: > 100 µM | IC50 [7]: > 100 µM | inhibition [8]: Active

FC(F)(F)c1ccc(-c2nc3cccnc3c3c2Cc2ccccc2-3)cc1
inhibition [1]: Active | inhibition [2]: Active | inhibition [3]: Active | IC50 [5]: > 100 µM | IC50 [6]: > 100 µM | IC50 [7]: > 100 µM

O=C1c2ccccc2-c2c1c(-c1ccccc1)nc1cccnc21
inhibition [1]: Active | inhibition [2]: Active | inhibition [3]: Active | inhibition [4]: Active | IC50 [5]: 14.1 µM | IC50 [6]: 23.7 µM | IC50 [7]: 1.9 µM | inhibition [8]: Active

OC1c2ccccc2-c2c1c(-c1ccccc1)nc1cccnc21 (stereo unspecified)
inhibition [1]: Active | inhibition [2]: Active | inhibition [3]: Active | IC50 [5]: > 100 µM | IC50 [6]: > 100 µM | IC50 [7]: > 100 µM

c1ccc([C@H]2Nc3cccnc3[C@H]3c4ccccc4C[C@H]32)cc1 (relative stereo)
inhibition [1]: Active | inhibition [2]: Active | inhibition [3]: Active | IC50 [5]: > 100 µM | IC50 [6]: 5.3 µM | IC50 [7]: > 100 µM

O=[N+]([O-])c1ccc([C@H]2Nc3cccnc3[C@H]3c4ccccc4C[C@H]32)cc1 (relative stereo)
inhibition [1]: Active | inhibition [2]: Active | inhibition [3]: Active | IC50 [5]: > 100 µM | IC50 [6]: 10.5 µM | IC50 [7]: > 100 µM

c1ccc2c(c1)Cc1c(-c3ccncc3)nc3cccnc3c1-2
inhibition [1]: Active | inhibition [2]: Active | inhibition [3]: Active | IC50 [5]: 32.9 µM | IC50 [6]: 2.9 µM | IC50 [7]: 10.5 µM

O=C1c2ccccc2-c2c1c(-c1ccc(C(F)(F)F)cc1)nc1cccnc21
inhibition [1]: Active | inhibition [2]: Active | inhibition [3]: Active | IC50 [5]: > 100 µM | IC50 [6]: > 100 µM | IC50 [7]: > 100 µM

O=C1c2ccccc2-c2c1c(-c1ccc(F)c(F)c1)nc1cccnc21
inhibition [1]: Active | inhibition [2]: Active | inhibition [3]: Active | IC50 [5]: > 100 µM | IC50 [6]: 20.7 µM | IC50 [7]: > 100 µM

c1ccc2c(c1)C[C@@H]1[C@H]2c2ncccc2N[C@@H]1c1ccncc1 (relative stereo)
inhibition [9]: Active | inhibition [1]: Active | inhibition [2]: Active | inhibition [3]: Active | IC50 [5]: 24.4 µM | IC50 [6]: 10.6 µM | IC50 [7]: 55.4 µM

Fc1cccc([C@H]2Nc3cccnc3[C@H]3c4ccccc4C[C@H]32)c1 (relative stereo)
inhibition [9]: Active | inhibition [1]: Active | inhibition [2]: Active | inhibition [3]: Active | inhibition [4]: Active | IC50 [5]: 15.5 µM | IC50 [6]: 3.5 µM | IC50 [7]: > 100 µM | inhibition [8]: Active

Fc1ccc(-c2nc3cccnc3c3c2Cc2ccccc2-3)cc1F
inhibition [1]: Active | inhibition [2]: Active | inhibition [3]: Active | IC50 [5]: > 100 µM | IC50 [6]: 48.6 µM | IC50 [7]: > 100 µM

OC1c2ccccc2-c2c1c(-c1ccc(C(F)(F)F)cc1)nc1cccnc21 (stereo unspecified)
inhibition [1]: Active | inhibition [2]: Active | inhibition [3]: Active | inhibition [4]: Active | IC50 [5]: > 100 µM | IC50 [6]: > 100 µM | IC50 [7]: > 100 µM | inhibition [8]: Active

Fc1cccc(-c2nc3cccnc3c3c2Cc2ccccc2-3)c1
inhibition [1]: Active | inhibition [2]: Active | inhibition [3]: Active | inhibition [4]: Active | IC50 [5]: > 100 µM | IC50 [6]: > 100 µM | IC50 [7]: > 100 µM | inhibition [8]: Active

O=C1c2ccccc2-c2c1c(-c1ccc(F)cc1F)nc1cccnc21
inhibition [1]: Active | inhibition [2]: Active | inhibition [3]: Active | IC50 [5]: > 100 µM | IC50 [6]: 34.1 µM | IC50 [7]: > 100 µM

O=[N+]([O-])c1ccc(-c2nc3cccnc3c3c2Cc2ccccc2-3)cc1
inhibition [1]: Active | inhibition [2]: Active | inhibition [3]: Active | IC50 [5]: 61.3 µM | IC50 [6]: 5.7 µM | IC50 [7]: 50.8 µM

Fc1ccc([C@H]2Nc3cccnc3[C@H]3c4ccccc4C[C@H]32)c(F)c1 (relative stereo)
inhibition [9]: Active | inhibition [1]: Active | inhibition [2]: Active | inhibition [3]: Active | IC50 [5]: 86.4 µM | IC50 [6]: 6.4 µM | IC50 [7]: > 100 µM

FC(F)(F)c1ccc([C@H]2Nc3cccnc3[C@H]3c4ccccc4C[C@H]32)cc1 (relative stereo)
inhibition [1]: Active | inhibition [2]: Active | inhibition [3]: Active | inhibition [4]: Active | IC50 [5]: 63.9 µM | IC50 [6]: 4.2 µM | IC50 [7]: > 100 µM | inhibition [8]: Active

Fc1ccc([C@H]2Nc3cccnc3[C@H]3c4ccccc4C[C@H]32)cc1F (relative stereo)
inhibition [9]: Active | inhibition [1]: Active | inhibition [2]: Active | inhibition [3]: Active | IC50 [5]: > 100 µM | IC50 [6]: 27.3 µM | IC50 [7]: > 100 µM

CC[C@@]1(O)C(=O)OCc2c1cc1n(c2=O)Cc2cc3ccccc3nc2-1 [CAMPTOTHECIN]
inhibition [1]: Active | inhibition [2]: Active | inhibition [3]: inactive | inhibition [10]: Active | inhibition [4]: Active | IC50 [5]: 0.07 µM | IC50 [7]: 0.0055 µM

c1ccc(-c2nc3cccnc3c3c2Cc2ccccc2-3)cc1
inhibition [1]: Active | inhibition [2]: Active | inhibition [3]: Active | inhibition [4]: Active | IC50 [5]: > 100 µM | IC50 [6]: > 100 µM | IC50 [7]: 47.9 µM | inhibition [8]: Active

Fc1ccc(-c2nc3cccnc3c3c2Cc2ccccc2-3)c(F)c1
inhibition [1]: Active | inhibition [2]: Active | inhibition [3]: Active | IC50 [5]: 39.6 µM | IC50 [6]: 1.7 µM | IC50 [7]: 6.4 µM
